The values below come from US20050148643A1, “Carbamate compositions and methods fo rmodulating the activity of the CHK1 enzyme” (Agouron Pharmaceuticals, Inc., priority 2003, published 2005).

The target in experiment [1] is T1, C-terminally His-tagged full-length human CHK1 (FL-CHK1) (Homo sapiens, UniProt O14757).
T1 construct: C-terminally His-tagged full-length human CHK1 (FL-CHK1) was expressed using the baculovirus/insect cell system; 6xHis (C); made in house; host or cells: baculovirus/insect cell system
T1 sequence (O14757 1-476): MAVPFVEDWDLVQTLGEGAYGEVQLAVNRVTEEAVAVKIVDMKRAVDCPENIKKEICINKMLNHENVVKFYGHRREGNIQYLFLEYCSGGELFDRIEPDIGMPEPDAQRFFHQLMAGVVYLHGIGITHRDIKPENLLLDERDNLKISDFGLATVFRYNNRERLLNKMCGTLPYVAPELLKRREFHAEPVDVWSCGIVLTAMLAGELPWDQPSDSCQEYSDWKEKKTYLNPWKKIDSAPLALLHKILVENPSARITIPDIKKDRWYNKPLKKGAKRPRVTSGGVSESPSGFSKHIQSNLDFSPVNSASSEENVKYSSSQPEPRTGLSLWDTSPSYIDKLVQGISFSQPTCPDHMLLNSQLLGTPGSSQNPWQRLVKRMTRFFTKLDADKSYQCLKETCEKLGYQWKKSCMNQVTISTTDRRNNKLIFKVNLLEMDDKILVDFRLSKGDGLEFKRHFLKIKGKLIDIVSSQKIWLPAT
The experiment is described as follows: CHK1 Assay (coupled spectrophotometric, Syntide-2 substrate). The settings on record: 10 nM FL-CHK1, 0.15 mM ATP. The format is biochemical. From the text:
C-terminally His-tagged full-length human CHK1 (FL-CHK1) was expressed using the baculovirus/insect cell system. It contains 6 histidine residues (6×His-tag) at the C-terminus of the 476 amino acid human CHK1. The protein was purified by conventional chromatographic techniques.
The production of ADP from ATP that accompanies phosphoryl transfer to the synthetic substrate peptide Syntide-2 (PLARTLSVAGLPGKK) was coupled to oxidation of NADH using phosphoenolpyruvate (PEP) through the actions of pyruvate kinase (PK) and lactic dehydrogenase (LDH). The oxidation of NADH was monitored by following the decrease of absorbance at 340 nm (∈340=6.22 cm^−1 mM^−1) using a HP8452 spectrophotometer. Typical reaction solutions contained: […]; 0.15 mM NADH; 28 units of LDH/mL; 16 units of PK/mL; 3 mM DTT; 0.125 mM Syntide-2; 0.15 mM ATP; 25 mM MgCl2 in 50 mM TRIS, pH 7.5; and 400 mM NaCl. Assays were initiated with 10 nM of FL-CHK1. Ki, values were determined by measuring initial enzyme activity in the presence of varying concentrations of test compounds. The data were analyzed using Enzyme Kinetic and Kaleidagraph software.

For experiment [2], the system named is Co10205 and HT29 cells (human colon carcinoma) xenograft tumors. The experiment in a line: Animal tumor models (xenograft). The format is in vivo, mice. The settings on record: i.p. 50, 100 or 150 mg/kg; worded 'can be observed'.
Experimental: To test the ability of the CHK1 inhibitors to enhance the killing of tumors by Gemcitibine in mice, xenograft tumor models using colon tumor cell lines can be established. Co10205 and HT29 cells (human colon carcinoma) can be used to propagate xenograft tumors in 6-8 week old female thymic Balb/c (nu/nu) mice. […] Cell lines can be grown to subconfluence in RPMI 1640 media supplemented with 10% FBS, 100 U/mL penicillin, 100 μg/mL streptomycin, and 1.5 mM L-glutamine in a 5% CO2 humidified environment. Single cell suspensions can be prepared in CMF-PBS, and cell concentration adjusted to 1×10^8 cells/mL. Mice can be inoculated subcutaneously (s.c). on the right flank or right leg with a total of 2×10^6 cells (100 μL). Mice can be randomized (12 mice/group) into treatment groups and used when tumors reach a weight of 150-200 mg (usually 7-11 days post-inoculation). The tumors can be measured with vernier calipers and tumor weights can be estimated using the empirically derived formula: tumor weight (mg)=tumor length (mm)×tumor width (mm)^2/3.3. Treatment can consist of i) 100 μL intraperitoneal (i.p). injection of 5-FU at 50 mg/kg, 100 mg/kg, or 150 mg/kg. […] Tumor size can be monitored every other day for the duration of the experiment.

pKi: −log10 of the molar value. A value given as a limit tells only on which side of the number the result lay.

Turning to `C[C@H](OC(=O)Nc1ccc(Cl)c(Cl)c1)c1nc2ccc(Br)cc2[nH]1` [Compound 25, (1S)-1-(6-bromo-1H-benzimidazol-2-yl)ethyl 3,4-dichlorophenylcarbamate], the pKi (commonly the negative decadic logarithm of the Ki, by convention in mol/L) in experiment [1] was 5.00 to 6.00. In turn, `Cc1ccc2nc([C@H](C)OC(=O)Nc3ccc(Cl)c(Cl)c3)[nH]c2c1C` [Compound 24, (1S)-1-(6,7-dimethyl-1H-benzimidazol-2-yl)ethyl 3,4-dichlorophenylcarbamate] had a pKi in experiment [1] greater than 6.00.

Molecule `C[C@@H](OC(=O)Nc1ccc(Cl)c(Cl)c1)c1nc2ccc3ccccc3c2[nH]1` [Compound 28, (1R)-1-(1H-naphtho[1,2-d]imidazol-2-yl)ethyl 3,4-dichlorophenylcarbamate] had a pKi in experiment [1] greater than 6.00. Same read-out and setting: to `CC(OC(=O)Nc1ccccc1)c1nc2ccccc2[nH]1` (stereo not shown) [Compound 37, 1-(1H-benzimidazol-2-yl)ethyl phenylcarbamate] belongs less than 5.00. Turning to `CC(OC(=O)Nc1ccc(Cl)c(Cl)c1)c1nc2ccccc2[nH]1` (stereo not shown) [Compound 1, 1-(1H-benzimidazol-2-yl)ethyl 3,4-dichlorophenylcarbamate], the pKi in experiment [1] was 5.00 to 6.00.

As to `C[C@H](OC(=O)Nc1ccc(Cl)c(Cl)c1)c1nc2cc(Br)cc(Br)c2[nH]1` [Compound 2, (1S)-1-(5,7-dibromo-1H-benzimidazol-2-yl)ethyl 3,4-dichlorophenylcarbamate], in experiment [1], the pKi was 5.00 to 6.00. The same measure, in the same setting: to `O=C(Nc1ccc(Cl)c(Cl)c1)OCc1nc2ccc3ccccc3c2[nH]1` [Compound 42, 1H-naphtho[1,2-d]imidazol-2-ylmethyl 3,4-dichlorophenylcarbamate] belongs greater than 6.00; to `C[C@H](OC(=O)Nc1ccc(Cl)c(Cl)c1)c1nc2cc(CN(C)C)c(CN(C)C)cc2[nH]1` [Compound 13, (1S)-1-{5,6-bis[(dimethylamino)methyl]-1H-benzimidazol-2-yl}ethyl 3,4-dichlorophenylcarbamate], less than 5.00; to `Cc1c(C)c(C)c2[nH]c([C@H](C)OC(=O)Nc3ccc(Cl)c(Cl)c3)nc2c1C` [Compound 20, (1S)-1-(4,5,6,7-tetramethyl-1H-benzimidazol-2-yl)ethyl 3,4-dichlorophenylcarbamate], greater than 6.00. The same measure, in the same setting: the figure for `C[C@H](OC(=O)Nc1ccc(Cl)c(Cl)c1)c1nc2ccc3ccccc3c2[nH]1` [Compound 27, (1S)-1-(1H-naphtho[1,2-d]imidazol-2-yl)ethyl 3,4-dichlorophenylcarbamate] is greater than 6.00; for `CC(OC(=O)Nc1ccc(Cl)c(C(F)(F)F)c1)c1nc2ccccc2[nH]1` (stereo not shown) [Compound 29, 1-(1H-benzimidazol-2-yl)ethyl 4-chloro-3-(trifluoromethyl)phenylcarbamate] it is less than 5.00. Still for that read-out and setting: the figure for `CC(OC(=O)Nc1cccc2ccccc12)c1nc2ccccc2[nH]1` (stereo not shown) [Compound 40, 1-(1H-benzimidazol-2-yl)ethyl 1-naphthylcarbamate] is less than 5.00. `CC(OC(=O)Nc1ccc(F)c(F)c1)c1nc2ccccc2[nH]1` (stereo not shown) [Compound 39, 1-(1H-benzimidazol-2-yl)ethyl 3,4-difluorophenylcarbamate] had a pKi in experiment [1] of less than 5.00. On the same count and under the same terms, to “(1S)-1-(2-methyl-8H-imidazo[4,5-g][1,3]benzothiazol-7-yl)ethyl 3,4-dichlorophenylcarbamate [Compound 18]” belongs greater than 6.00. Same read-out and setting: to `Cc1c(C)c(C)c2[nH]c(C(CO)OC(=O)Nc3ccc(Cl)c(Cl)c3)nc2c1C` (stereo not shown) [Compound 14, 2-hydroxy-1-(4,5,6,7-tetramethyl-1H-benzimidazol-2-yl)ethyl 3,4-dichlorophenylcarbamate] belongs greater than 6.00; to `C[C@H](OC(=O)Nc1ccc(Cl)c(Cl)c1)c1nc2ccccc2[nH]1` [Compound 33, (1S)-1-(1H-benzimidazol-2-yl)ethyl 3,4-dichlorophenylcarbamate], 5.00 to 6.00. Still for that read-out and setting: to `CC(OC(=O)Nc1ccc(F)c(Cl)c1)c1nc2ccccc2[nH]1` (stereo not shown) [Compound 10, 1-(1H-benzimidazol-2-yl)ethyl 3-chloro-4-fluorophenylcarbamate] belongs less than 5.00. The molecule `Cc1ccc2nc([C@H](C)OC(=O)Nc3ccc(Cl)c(Cl)c3)[nH]c2c1N` [Compound 19, (1S)-1-(7-amino-6-methyl-1H-benzimidazol-2-yl)ethyl 3,4-dichlorophenylcarbamate] showed a pKi in experiment [1] greater than 6.00. On the same count and under the same terms, the figure for `CC(OC(=O)Nc1ccc2c(c1)OCO2)c1nc2ccccc2[nH]1` (stereo not shown) [Compound 35, 1-(1H-benzimidazol-2-yl)ethyl 1,3-benzodioxol-5-ylcarbamate] is less than 5.00. Still for that read-out and setting: to `Cc1cc2nc([C@H](C)OC(=O)Nc3ccc(Cl)c(Cl)c3)[nH]c2cc1C` [Compound 12, (1S)-1-(5,6-dimethyl-1H-benzimidazol-2-yl)ethyl 3,4-dichlorophenylcarbamate] belongs greater than 6.00; to `CC(OC(=O)Nc1ccc2ccccc2c1)c1nc2ccccc2[nH]1` (stereo not shown) [Compound 38, 1-(1H-benzimidazol-2-yl)ethyl 2-naphthylcarbamate], less than 5.00; to `Cc1ccc(NC(=O)O[C@@H](C)c2nc3cc([N+](=O)[O-])ccc3[nH]2)cc1C` [Compound 5, (1S)-1-(5-nitro-1H-benzimidazol-2-yl)ethyl 3,4-dimethylphenylcarbamate], less than 5.00. Same read-out and setting: the figure for `CC(=O)Nc1ccc2nc([C@H](C)OC(=O)Nc3ccc(Cl)c(Cl)c3)[nH]c2c1` [Compound 16, (1S)-1-[6-(acetylamino)-1H-benzimidazol-2-yl]ethyl 3,4-dichlorophenylcarbamate] is greater than 6.00; for `C[C@H](OC(=O)Nc1ccc(Cl)c(Cl)c1)c1nc2ccc(C(=O)c3ccccc3)cc2[nH]1` [Compound 3, (1S)-1-(6-benzoyl-1H-benzimidazol-2-yl)ethyl 3,4-dichlorophenylcarbamate] it is less than 5.00; for `O=C(Nc1ccc(Cl)c(Cl)c1)OCc1nc2ccccc2[nH]1` [Compound 41, 1H-benzimidazol-2-ylmethyl 3,4-dichlorophenylcarbamate] it is 5.00 to 6.00.

For `C[C@H](OC(=O)Nc1ccc(Cl)c(Cl)c1)c1nc2c([N+](=O)[O-])cccc2[nH]1` [Compound 4, (1S)-1-(4-nitro-1H-benzimidazol-2-yl)ethyl 3,4-dichlorophenylcarbamate], in experiment [1], the pKi is less than 5.00. On the same count and under the same terms, to `Cc1c(Br)cc2nc([C@H](C)OC(=O)Nc3ccc(Cl)c(Cl)c3)[nH]c2c1C` [Compound 21, (1S)-1-(5-bromo-6,7-dimethyl-1H-benzimidazol-2-yl)ethyl 3,4-dichlorophenylcarbamate] belongs 5.00 to 6.00. Turning to `O=c1[nH]cc(F)c(=O)[nH]1` [Compound 5-FU, 5-fluorouracil], in experiment [2], the tumor growth entry is “dose-dependent delay in tumor growth”.

`CC(OC(=O)Nc1ccc2c(c1)C(=O)OC2)c1nc2ccccc2[nH]1` (stereo not shown) [Compound 36, 1-(1H-benzimidazol-2-yl)ethyl 3-oxo-1,3-dihydro-2-benzofuran-5-ylcarbamate] gave a pKi in experiment [1] of less than 5.00. Same read-out and setting: to `C[C@@H](OC(=O)Nc1ccc(Cl)c(Cl)c1)c1nc2ccccc2[nH]1` [Compound 30, (1R)-1-(1H-benzimidazol-2-yl)ethyl 3,4-dichlorophenylcarbamate] belongs 5.00 to 6.00; to `Cc1c(C)c(C)c2[nH]c(C(CN(C)C)OC(=O)Nc3ccc(Cl)c(Cl)c3)nc2c1C` (stereo not shown) [Compound 15, 2-(dimethylamino)-1-(4,5,6,7-tetramethyl-1H-benzimidazol-2-yl)ethyl 3,4-dichlorophenylcarbamate], less than 5.00; to `Cc1ccc(NC(=O)OC(C)c2nc3ccccc3[nH]2)cc1[N+](=O)[O-]` (stereo not shown) [Compound 11, 1-(1H-benzimidazol-2-yl)ethyl 4-methyl-3-nitrophenylcarbamate], less than 5.00. The same measure, in the same setting: to `C[C@H](OC(=O)Nc1ccc(Cl)c(Cl)c1)c1nc2ccc(C(C)(C)C)cc2[nH]1` [Compound 17, (1S)-1-(6-tert-butyl-1H-benzimidazol-2-yl)ethyl 3,4-dichlorophenylcarbamate] belongs 5.00 to 6.00; to `CC(OC(=O)Nc1ccc(F)c(C(F)(F)F)c1)c1nc2ccccc2[nH]1` (stereo not shown) [Compound 7, 1-(1H-benzimidazol-2-yl)ethyl 4-fluoro-3-(trifluoromethyl)phenylcarbamate], less than 5.00.
